“And” between values parts separate entries of the source, which are not always exact repeats. Equal entries are not always repeated.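 Dose response: 5 concentrations. Exposure: 48 h. Format: 96-well plates. Endpoint: linear interpolation; highest concentration if not reached. The concentration for 50% growth inhibition is given as GI50. TGI: concentration producing complete growth inhibition.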
What was measured:
Experiment in all cases: DTP human tumour cell line panel, 48 h
[1] = test system: 786-0 renal
[2] = test system: BT-549 breast
[3] = test system: CAKI-1 renal
[4] = test system: COLO 205 colon
[5] = test system: HS 578T breast
[6] = test system: LOX IMVI melanoma
[7] = test system: SF-295 CNS
[8] = test system: SF-539 CNS
[9] = test system: SK-OV-3 ovarian
[10] = test system: SNB-75 CNS

SMILES | GI50 [1] [µM] | TGI [1] | GI50 [2] [µM] | TGI [2] [µM] | GI50 [3] [µM] | TGI [3] [µM] | GI50 [4] [µM] | TGI [4] [µM] | GI50 [5] [µM] | TGI [5] [µM] | GI50 [6] [µM] | TGI [6] | GI50 [7] [µM] | TGI [7] | GI50 [8] [µM] | TGI [8] | GI50 [9] [µM] | TGI [9] | GI50 [10] [µM] | TGI [10] [µM]
CCCCCCCCOC(=O)c1c(C)[nH]c(/C=C2\N=C(c3ccc[nH]3)C=C2OC)c1C | 0.0407 | 1.32 µM | 0.164 | 14.4 | < 0.0214 | 4.83 | 0.0846 | 2.62 | 0.0494 | 0.578 | < 0.0134 | < 0.02 µM | 0.0779 | 0.639 µM | 0.0529 | 2.62 µM | 0.899 | 15.9 µM | 0.0451 | 0.432
N/C(=N\NS(=O)(=O)c1ccccc1)Oc1ccc(Br)cc1Br |  | > 100 µM |  |  |  | > 100 |  | > 100 |  |  |  | > 100 µM |  | > 100 µM |  | > 100 µM |  | > 100 µM |  | > 100
CN1CCN(CCOc2ccc(-c3cnc4c(-c5cccc(F)c5)cnn4c3)cc2)CC1 | 1.79 | 3.42 µM | 3.51 | 14.1 | 1.61 | 3.12 |  |  | 1.74 | 4.79 | 1.84 | 3.35 µM | 1.71 | 3.27 µM | 1.49 | 2.88 µM |  |  | 1.39 | 3.53
C[Si](C)(C)C(CCCCSc1ccccc1)(Sc1ccccc1)Sc1ccccc1 |  | > 100 µM |  |  |  | > 100 |  | > 100 |  |  |  | > 100 µM |  | > 100 µM |  | > 100 µM |  | > 100 µM |  | > 100
CCC(C)Oc1nc2c(c(=O)n(C)c(=O)n2C)n1C (stereo unspecified) | > 100 | > 100 µM | > 100 | > 100 | > 100 | > 100 | > 100 | > 100 |  |  | > 100 | > 100 µM | > 100 | > 100 µM | > 100 | > 100 µM | > 100 | > 100 µM | > 100 | > 100
CN(Cc1ccc(C(F)(F)F)cc1)CC(O)C(=O)Nc1ccc(Cl)cc1 (stereo unspecified) | 1.44 | 2.84 µM | 1.46 | 2.88 | 1.37 | 2.83 | 1.86 | 3.46 |  |  | 1.05 | 2.3 µM | 1.63 | 3.08 µM | 1.73 | 3.24 µM | 1.48 | 2.96 µM | 1.31 | 2.62
Cc1c(C(=O)/C=C/C=C/c2ccccc2)[n+](=O)c2ccccc2n1[O-] |  | 52.7 µM |  |  |  | > 100 |  | > 100 |  |  |  | > 100 µM |  | > 100 µM |  | > 100 µM |  | > 100 µM |  | > 100
O=C(O)c1cc(=O)c2c([nH]c3ccccc32)s1 |  | > 100 µM |  |  |  | > 100 |  | > 100 |  |  |  |  |  | > 100 µM |  |  |  | > 100 µM |  | > 100
COC(=O)C1=C(CS(=O)c2ccc([N+](=O)[O-])cc2[N+](=O)[O-])C2C=CC1C2 (stereo unspecified) |  | 62.6 µM |  |  |  | 39.6 |  | 41.5 |  |  |  | 30.8 µM |  | > 100 µM |  | 51.2 µM |  | > 100 µM |  | 76.6
O=C1OC(c2ccccc2)=N/C1=C\c1ccc(Oc2ccc(Cl)c(Cl)c2)cc1 |  | > 100 µM |  |  |  |  |  | > 100 |  |  |  |  |  | > 100 µM |  | 58.4 µM |  |  |  | 
Cc1cc(NC(=O)C2C3C=CC(O3)C2C(=O)O)no1 (stereo unspecified) |  | 34.9 µM |  |  |  |  |  | 31.5 |  |  |  | 29.8 µM |  | > 100 µM |  | 54.9 µM |  | > 100 µM |  | > 100
NNc1cnn(-c2ccccc2)c(=O)c1Cl |  | > 100 µM |  |  |  | > 100 |  | > 100 |  |  |  | > 100 µM |  | > 100 µM |  | > 100 µM |  | > 100 µM |  | > 100
Cc1ccc(S(=O)(=O)N=NC=C2c3ccccc3N(O)c3ccccc32)cc1 |  | 7.36 µM |  |  |  | 23.8 |  | 7.99 |  |  |  | 2.76 µM |  | 21.6 µM |  |  |  | 27.9 µM |  | 10.4
NC(=O)c1cc(N(CCO)CCO)c([N+](=O)[O-])cc1[N+](=O)[O-] |  | > 100 µM |  |  |  | > 100 |  | > 100 |  | > 100 |  | > 100 µM |  | > 100 µM |  | > 100 µM |  | > 100 µM |  | 
O=C(C#Cc1ccccc1)N1c2ccccc2CC1c1c[nH]c2ccccc12 (stereo unspecified) |  | 34.8 µM |  |  |  | 33.2 |  | 31.6 |  |  |  | 19.7 µM |  | 49.7 µM |  | 31.1 µM |  | 51 µM |  | 37.6
CCOC(=O)CN(Cn1cncn1)Cn1cncn1 |  | > 100 µM |  |  |  | > 100 |  | > 100 |  |  |  | 43.4 µM |  | > 100 µM |  |  |  | > 100 µM |  | 91
COC(=O)C12CC(NC(=O)c3csc([C@@H](C[C@H](C(C)C)N(C)C(=O)[C@@H](NC(=O)[C@H]4CCCCN4C)C4CC4)OC(C)=O)n3)(C1)C2 | 0.0394 | > 16.7 µM | 0.00766 | 2.72 |  |  | 0.00972 | 0.201 | 0.0169 | > 16.7 | 0.0144 | > 16.7 µM | 0.0422 | > 16.7 µM | 0.00853 | 0.0613 µM | 0.0735 | > 16.7 µM | 0.00548 | > 16.7
CCc1cccc(C)c1NC(=O)CCc1nnc2s/c(=C\c3cccc4ccccc34)c(=O)n12 |  | > 100 µM |  |  |  | > 100 |  | > 100 |  |  |  | > 100 µM |  | > 100 µM |  | > 100 µM |  | > 100 µM |  | > 100
CC(=O)NC(CCCCN)C(=O)NCc1ccccc1 (stereo unspecified) |  | > 100 µM |  |  |  | > 100 |  | > 100 |  |  |  | > 100 µM |  | > 100 µM |  | > 100 µM |  | > 100 µM |  | > 100
CC(C)(O)/C=C/C(=O)[C@](C)(O)[C@H]1[C@H](O)C[C@@]2(C)[C@@H]3CC=C4[C@@H](C[C@H](O)C(=O)C4(C)C)[C@]3(C)C(=O)C[C@]12C | 0.218 | 0.939 µM and 0.362 µM |  |  | 1.85 |  | 0.0919 |  |  |  | 0.0441 | 0.198 µM and 0.193 µM | 0.264 | 0.629 µM and 2.61 µM | 0.217 | 0.614 µM and 0.264 µM | 0.566 | 0.977 µM and 4.71 µM | 0.0496 | 

Source: PubChem BioAssay (NCI)
